Results on one compound are retold here after article PMC9729826, “Hypoaminoacidemia underpins glucagon-mediated energy expenditure and weight loss” (Cell Reports Medicine, 2022).

The structures appear in SMILES notation. Starred links: 1 amine or outer side, 2 acyl side, 3 side chain; linkers in the order of their positions; H or OH if unused. Non-standard residues stand in square brackets, D forms with d. Residues, ends and D or L forms follow the SMILES beside them. Groups on a side chain read outwards from the residue. *: point of attachment. C18 diacid = O=C(O)CCCCCCCCCCCCCCCCC(=O)*; γGlu = O=C(O)[C@H](CCC(=O)[*:2])N[*:1]; Aib = CC(C)(N)C(=O)O

Format in all cases: in vivo, mouse
In assay [1] the test system is diet-induced obese (DIO) C57BL/6 mice. Description: Total amino acid supplementation in G108-treated DIO mice. Conditions: n = 8/group. An excerpt: Lean 10-week-old C57BL/6 mice (N = 32) were provided ad libitum a 60 kcal% high fat diet (diet D12492, Table S2) ad libitum for 8 weeks. Half of the animals were then provided with a high fat standard protein diet (D08091803, Table S2) or a high fat standard protein diet supplemented with additional total amino acids (SP + TAA diet, Formula 1, Table S3). From each diet group, animals were allocated to receive either 7.5 nmol/kg G108 or vehicle control (N = 8/group). The subsequent four treatment groups were as follows: Vehicle/SP diet, G108/SP diet, Vehicle/SP + TAA diet, G108/SP + TAA diet. Food intake and body weight was recorded every 48 h during the study. Baseline body composition analysis (EchoMRI) was carried out in addition body composition analysis on day 18. […]
(§1) To measure energy expenditure, DIO mice were placed into a Comprehensive Laboratory Animal Monitoring System (CLAMS, Columbus instruments, Columbus, US). […] Food intake was also measured electronically without the need to remove food. […] Feed efficiency was calculated as mg body weight change per kJ consumed.
Plasma total amino acids were measured using fluorometric-based ELISA kits as described (MAK002, Sigma-Aldrich, Ab65347, Abcam). Plasma FGF21 was measured using a fluorescent based ELISA kit (ab229382, Abcam). Plasma triglyceride, cholesterol and leptin were measured using ELISA kits (ab65336, ab65390, ab199082, Abcam). […]

Assay [2] concerns lean C57BL/6 mice. Nature of the assay: 18-day dose-finding study of food intake in lean mice. How it is done: C57BL/6 mice matched for weight and age (14-week-old, N = 24) were administered via subcutaneous injection at 9 am daily for 18 days, vehicle control or G108 diluted in sterile HPLC water. Ascending doses of either 5 nmol/kg, 10 nmol/kg or 20 nmol/kg G018 were administered. All mice had ad libitum access to RM1 diet (Special Diet Services, UK) and water. Food intake and body weights were recorded daily.
(§2) Food intake was measured daily using a dedicated weighing scale and topped up accordingly. Body weight was recorded at 9 am daily or every 48 h using the same weighing scale. Body composition was measured using an EchoMRI analyser at various timepoints during chronic studies. Body composition measurements were taken on the same time of day to reduce intra-animal variability. Animals were placed in a transparent cylindrical Perspex tube and both ends secured with Perspex clips. The tubes containing the animal was then carefully placed into the MRI machine (EchoMRI −100H analyser, EchoMRI). Each scan lasted approximately 90 s where lean mass and fat mass were recorded in grams. Following the scan, the mice were removed from the Perspex tube and returned to their respective cages.

The test system of assay [3] is diet-induced obese (DIO) C57BL/6 mice. Description: Essential and non-essential amino acid supplementation in G108-treated DIO mice. Conditions: 7.5 nmol/kg daily, 14 days, n = 8/group.
Source text: Lean 10-week-old C57BL/6 mice (N = 48) were provided ad libitum with a 60 kcal% high fat diet (diet D12492, Table S2) for 8 weeks. They were then provided with either a high fat standard protein diet (SP) (D08091803), a high fat standard protein diet supplemented with essential amino acids (SP + EAA) (Formula 2, Table S3), or a high fat standard protein diet supplemented with non-essential amino acids (SP + NEAA) (Formula 3, Table S3), N = 16/group. Mice from each diet group received either 7.5 nmol/kg G108 or vehicle control resulting in the following six treatment groups, N = 8/group: Vehicle/SP, 7.5 nmol/kg G108/SP, Vehicle/SP +EAA, 7.5 nmol/kg G108/SP + EAA, Vehicle/SP + NEAA, 7.5 nmol/kg G108 + NEAA. Food intake and body weight was measured every 48 h. Prior to commencing their respective diets, baseline body composition analysis was (EchoMRI) was carried out in addition to body composition analysis on day 11. Tail venesection was carried out on day 13 of the study 4 h following respective treatments. […]
as §1

The subject of assay [4] is lean C57BL/6 mice. Nature of the assay: Chronic low-dose (5 nmol/kg) G108 study in lean mice. The settings on record: 5 nmol/kg s.c. daily. How it is done:
For the low-dose G108 (5 nmol/kg) study, C57BL/6 mice matched for weight and age (14-week-old, N = 14) were single housed and split into two treatment groups (N = 7/group). All mice were subcutaneously administered with the allocated treatment daily at 9 am for 21 days. Mice were administered with vehicle control (HPLC water) or 5 nmol/kg G108 (diluted in sterile HPLC water). All mice had ad libitum access to a standard protein diet containing 20 kcal% protein (diet D11112201) (Table S2). Food intake and body weight were measured daily prior to treatment each day. EchoMRI analysis was carried out at baseline and days 7, 14 and 21. Tail venesection was carried out on day 7 of study, pre- and 4 h post treatment dose. Blood samples were immediately transferred on ice, centrifuged at 2800 × g for 10 min prior to plasma total amino acid analysis. Forelimb grip strength testing was performed at baseline, day 14 and day 21. On day 21, following a 4 h fast, mice were culled, and the following muscle groups dissected and weighed: quadriceps, gastrocnemius, soleus, tibialis anterior, extensor digitorum longus.
as §2
A grip strength meter (Bioseb, France) was used to measure grip strength. […] The maximum force, measured in g was recorded. Four consecutive measurements were made with a 1 min rest interval. An average of measurements was taken for each timepoint prior to subsequent analysis.
Plasma total amino acids were measured using fluorometric-based ELISA kits as described (MAK002, Sigma-Aldrich, Ab65347, Abcam). Plasma FGF21 was measured using a fluorescent based ELISA kit (ab229382, Abcam). Plasma triglyceride, cholesterol and leptin were measured using ELISA kits (ab65336, ab65390, ab199082, Abcam). Individual amino acids were measured using Gas Chromatography/Mass Spectrometry (WellChild laboratory, Evelina Children’s Hospital, St Thomas’s Hospital, London).

For `CC[C@H](C)[C@H](NC(=O)[C@H](Cc1ccccc1)NC(=O)[C@H](CCC(=O)O)NC(=O)[C@H](CCC(N)=O)NC(=O)[C@H](C)NC(=O)[C@H](CCCNC(=N)N)NC(=O)[C@H](CCCCN)NC(=O)[C@H](C)NC(=O)[C@H](CC(=O)O)NC(=O)[C@H](CC(C)C)NC(=O)[C@H](Cc1ccc(O)cc1)NC(=O)[C@H](CCCNC(=N)N)NC(=O)[C@H](CO)NC(=O)[C@H](Cc1ccc(O)cc1)NC(=O)[C@H](CC(=O)O)NC(=O)[C@H](CO)NC(=O)[C@@H](NC(=O)[C@H](Cc1ccccc1)NC(=O)[C@@H](NC(=O)CNC(=O)[C@H](Cc1c[nH]cn1)NC(=O)C(C)(C)NC(=O)[C@@H](N)Cc1c[nH]cn1)[C@@H](C)O)[C@@H](C)O)C(=O)N[C@@H](CCC(=O)O)C(=O)N[C@@H](Cc1c[nH]c2ccccc12)C(=O)N[C@@H](CC(C)C)C(=O)N[C@@H](CC(C)C)C(=O)N[C@@H](CCC(N)=O)C(=O)N[C@@H](CO)C(=O)N[C@@H](Cc1c[nH]cn1)C(=O)N[C@@H](Cc1c[nH]cn1)C(=O)N[C@@H](CCC(N)=O)C(=O)N[C@@H](Cc1c[nH]cn1)C(=O)N[C@@H](Cc1c[nH]cn1)C(=O)N1CCC[C@H]1C(=O)N[C@@H](CO)C(=O)N1CCC[C@H]1C(=O)N1CCC[C@H]1C(=O)N1CCC[C@H]1C(=O)N[C@@H](CCCCNC(=O)[C@H](CC(N)=O)NC(=O)CC[C@H](NC(=O)CCCCCCCCCCCCCCCCC(=O)O)C(=O)O)C(N)=O` [Peptide G108] (H-H[Aib]HGTFTSDYSRYLDAKRAQEFIEWLLQSHHQHHPSPPPK([Asn-γGlu-C18 diacid])-NH2; N-terminus and C-terminus assumed), the “body weight on SP diet supplemented with total amino acids (SP + TAA)” value in assay [1] (7.5 nmol/kg daily, 20 days) is given as “prevented G108-mediated weight loss independent of food intake”. Also, the “blood glucose over 4 hours after acute administration” value in assay [1] (single 7.5 nmol/kg dose, following a transient increase) was “reduction in blood glucose that lasted several hours”. For the same compound, the food intake result is listed as “no effect on food intake” in assay [2] (5 nmol/kg s.c. daily); “sustained reduction in food intake” in assay [2] (10 nmol/kg s.c. daily, 18 days, n = 6/group); “sustained reduction in food intake” in assay [2] (20 nmol/kg s.c. daily, 18 days, n = 6/group). Further, the “effects on weight loss and feed efficiency on SP diet supplemented with either EAAs or NEAAs” value in assay [3] is listed as “not suppressed”. Besides, the “body composition (lean mass, EchoMRI)” value in assay [4] (21 days, n = 7/group) is listed as “reduced lean mass”. Also, in assay [4] (21 days, n = 7/group), the “body weight gain compared with vehicle” value is “prevented weight gain”. In assay [4] (day 7, n = 7/group), the “plasma total amino acids” value is reported as “sustained reduction in plasma amino acids”. Besides, in assay [4] (day 21, n = 7/group), the “weight of the quadriceps and gastrocnemius muscles” value is “reduced”. In addition, in assay [4] (days 14 and 21, n = 7/group), the forelimb grip strength entry is “reduced”.
